According to patent publication US10273238B2, “Indazolones as modulators of TNF signaling” (AbbVie Inc., priority 2015, dated 2019):

target: TNFα (Homo sapiens, UniProt P01375); experiment: TNFα FP Competitive Binding Assay; settings: 20 nM TNFα trimer, 1 nM OregonGreen488 probe, read-out: TNF IC50
Description: TNFα FP Competitive Binding Assay
Prepare 1× Assay Buffer (Water with 47 mil HEPES, 47 mM NaCl, 0.9 mM EDTA, 0.0071% Triton X-100) by adding 25 mL of 1 M HEPES, 5 mL of 5 M NaCl, 1 mL of 0.5 M EDTA, and 375 μL of a 10% Triton X-100 stock to a fresh 500 mL bottle of water.
Prepare fresh Assay Mixture containing 20 nM TNFα trimer (60 nM protein) and 1 nM 2′,7′-difluoro-3′,6′-dihydroxy-N-(2-(2-(2-((4-(isoquinolin-8-yl)-3-(4-(isoquinolin-8-yl)phenethoxy)benzyl)oxy)ethoxy)ethoxy)ethyl)-3-oxo-3H- spiro[isobenzofuran-1,9′-xanthene]-5-carboxamide probe in 1× Assay Buffer.
Top concentration of compounds, 10 mM in DMSO, dispensed in rows A-O in columns 1 and 13. Compounds are serially diluted 1:3 with DMSO in columns 2-12 or 14-24 using a 16-channel Matrix pipettor. Plates stored at −20° C.
Top concentration, 5 mM in DMSO, of compounds placed in rows A-O in columns 1 and 13.
Compounds are serially diluted 1:3 with DMSO in columns 2-12 or 14-24. Compound solutions are dispensed into replicate assay plates at 410 nL per well. Plates stored at 4° C.
TNFα FP Competitive Binding Assay Protocol • 1. Compound plates warmed to rt. • 2. Fresh Assay Mixture is prepared. • 3. Assay Mixture (20 μL) is dispensed each well of 384 assay plates using a Thermo Multidrop Combi or 16-channel Matrix pipettor. If Manual 12-point 1:3 Dilution Plates are to be tested, Assay Mix is dispensed into empty plates. Discovery Preps 12-point 1:3 Dilution Plates already contain 410 nL compound solution in DMSO. • 4. For Manual 12-point 1:3 Dilution Plates, 0.7 μL is manually transferred using a 16-channel Matrix pipettor to replicate assay plates containing 20 μL Assay Mixture for a final top compound concentration of […] (3.4% DMSO). • 5. For Discovery Preps 12-point 1:3 Dilution Plates, 20 μL Assay Mixture added the 410 nL compound solution already in the plates yields a final top compound concentration of 100 μM (2.0% DMSO). • 6. Background subtraction controls are wells P1-P8 containing only Assay Buffer. The low % inhibition controls are wells P9-P16 containing only Assay Mix. The high % inhibition are wells P17-P24 containing only 1 nM 2′,7′-difluoro-3′,6′-dihydroxy-N-(2-(2-(2-((4-(isoquinolin-8-yl)-3-(4-(isoquinolin-8-yl)phenethoxy)benzyl)oxy)ethoxy)ethoxy)ethyl)-3-oxo-3H-spiro[isobenzofuran-1,9′-xanthene]-5-carboxamide probe in 1× Assay Buffer. • 7. Plates are incubated at rt for 18-24 h in […] (CO2 is off). • 8. Prior to reading the assay, the plates are placed in a dark cabinet to equilibrate at rt for one hour. • 9. Background-subtracted fluorescence polarization (mP) is measured using a PerkinElmer Envision plate reader. • 10. Raw data is entered into Assay Explorer and dose-response curves are generated using a variable slope curve.

Sequence of TNFα (P01375 77-233 limits assumed): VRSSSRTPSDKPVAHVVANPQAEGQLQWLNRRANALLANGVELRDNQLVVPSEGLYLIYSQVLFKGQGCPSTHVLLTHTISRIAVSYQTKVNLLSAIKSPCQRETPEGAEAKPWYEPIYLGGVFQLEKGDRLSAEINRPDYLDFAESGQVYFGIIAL

IC50	Structure (SMILES)
1000 to 10000 nM	O=C1C[C@H](CNc2ncc(-c3ccc4c(=O)n5n(c4c3)[C@@H](c3ccccc3OC(F)F)CC5)cn2)CN1 (single isomer, unassigned) [Example 4.5]
< 1000 nM	Cc1ccc(OC(F)F)c([C@H]2CCn3c(=O)c4ccc(-c5cnc(C(C)(C)O)nc5)cc4n32)c1 (single isomer, unassigned) [Example 15.2]
< 1000 nM	O=c1c2ccc(-c3cnc(N4CCO[C@@H](CO)C4)nc3)cc2n2n1CC[C@@H]2c1ccccc1OC(F)F (single isomer, unassigned) [Example 1.8]
< 1000 nM	O=C1NC[C@H]2CN(c3ncc(-c4ccc5c(c4)[C@H]4[C@@H](c6ccccc6OC(F)F)CCN4C5=O)cn3)CCN12 (single isomer, unassigned) [Example 11.2]
1000 to 10000 nM	O=C1C[C@H](CNc2ncc(-c3ccc4c(=O)n5n(c4c3)[C@H](c3ccccc3OC(F)F)CC5)cn2)CN1 (single isomer, unassigned) [Example 4.6]
< 1000 nM	Cc1ccc(OC(F)F)c([C@@H]2CCn3c(=O)c4ccc(-c5cnc(N6CCN7C(=O)NC[C@H]7C6)nc5)cc4n32)c1 (single isomer, unassigned) [Example 14.1]
1000 to 10000 nM	O=C1C[C@@H](CNc2ncc(-c3ccc4c(=O)n5n(c4c3)[C@@H](c3ccccc3OC(F)F)CC5)cn2)CN1 (single isomer, unassigned) [Example 4.3]
< 1000 nM	O=c1c2ccc(-c3cnc(N4CCO[C@H](CO)C4)nc3)cc2n2n1CC[C@H]2c1ccccc1OC(F)F (single isomer, unassigned) [Example 2.1]
< 1000 nM	O=C1NC[C@@H]2CN(c3ncc(-c4ccc5c(=O)n6n(c5c4)[C@@H](c4ccccc4OC(F)F)CC6)cn3)CCN12 (single isomer, unassigned) [Example 6.2]

Further lines, the compound ahead of its results:

Structure (SMILES)	IC50
O=c1c2ccc(-c3cnc(N4CCOCC4)nc3)cc2n2n1CCC2c1ccccc1 (stereo not drawn) [Example 8.2, 6-(2-morpholinopyrimidin-5-yl)-3-phenyl-2,3-dihydropyrazolo[1,2-a]indazol-9(1H)-one]	1000 to 10000 nM
O=c1c2ccc(-c3cnc(N[C@@H]4CCOC4)nc3)cc2n2n1CC[C@@H]2c1ccccc1OC(F)F (single isomer, unassigned) [Example 1.6]	1000 to 10000 nM
COC[C@H]1CCCN1c1ncc(-c2ccc3c(c2)[C@H]2[C@@H](c4ccccc4OC(F)F)CCN2C3=O)cn1 (single isomer, unassigned) [Example 10.4]	> 10000 nM
COc1ccc(C#N)cc1C1CCn2c(=O)c3ccc(-c4cnc(N5CCOCC5)nc4)cc3n21 (stereo not drawn) [Example 8.3, 4-methoxy-3-(6-(2-morpholinopyrimidin-5-yl)-9-oxo-1,2,3,9-tetrahydropyrazolo[1,2-a]indazol-3-yl)benzonitrile]	1000 to 10000 nM
CC(C)(O)c1ncc(-c2ccc3c(=O)n4n(c3c2)[C@H](c2ccccc2OC(F)F)CC4)cn1 (single isomer, unassigned) [Example 4.1]	1000 to 10000 nM
COc1ccc(CO)cc1C1CCn2c(=O)c3ccc(-c4cnc(N5CCOCC5)nc4)cc3n21 (stereo not drawn) [Example 19, 3-(5-(Hydroxymethyl)-2-methoxyphenyl)-6-(2-morpholinopyrimidin-5-yl)-2,3-dihydropyrazolo[1,2-a]indazol-9(1H)-one]	1000 to 10000 nM
